Data on five compounds can be found in ChEMBL document CHEMBL6083179, “Glucagon-like peptide-1 analogs: Miracle drugs are blooming?” (Eur J Med Chem, 2024).

Assay [1] addresses T1, Glucagon-1 (Xenopus laevis, UniProt O42143).
T1 sequence (O42143 whole entry): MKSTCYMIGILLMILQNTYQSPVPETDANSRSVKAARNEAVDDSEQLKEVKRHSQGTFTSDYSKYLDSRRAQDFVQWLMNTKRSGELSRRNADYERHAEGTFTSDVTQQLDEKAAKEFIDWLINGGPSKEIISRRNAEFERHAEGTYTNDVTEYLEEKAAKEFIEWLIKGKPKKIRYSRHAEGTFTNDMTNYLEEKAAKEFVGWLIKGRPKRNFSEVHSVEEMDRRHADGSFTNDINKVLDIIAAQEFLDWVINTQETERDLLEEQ
The assay can be described thus: Inhibition of Xenopus laevis GLP-1B (1 to 32 residues).

Assay [2] addresses T1, Glucagon-1. The assay can be described thus: Inhibition of Xenopus laevis GLP-1C (1 to 30 residues).
A short description of assay [3]: Inhibition of Ornithorhynchus anatinus GLP-1.
Assay [4] addresses T1, Glucagon-1. The assay can be described thus: Inhibition of Xenopus laevis GLP-1A (1 to 37 residues).

At Glucagon-1 [1], `CC[C@H](C)[C@H](NC(=O)[C@H](CC(C)C)NC(=O)[C@H](Cc1c[nH]c2ccccc12)NC(=O)[C@H](CCC(=O)O)NC(=O)[C@@H](NC(=O)[C@H](Cc1ccccc1)NC(=O)[C@H](CCC(=O)O)NC(=O)[C@H](CCCCN)NC(=O)[C@H](C)NC(=O)[C@H](C)NC(=O)[C@H](CCCCN)NC(=O)[C@H](CCC(=O)O)NC(=O)[C@H](CCC(=O)O)NC(=O)[C@H](CC(C)C)NC(=O)[C@H](Cc1ccc(O)cc1)NC(=O)[C@H](CCC(=O)O)NC(=O)[C@@H](NC(=O)[C@@H](NC(=O)[C@H](CC(=O)O)NC(=O)[C@H](CC(N)=O)NC(=O)[C@@H](NC(=O)[C@H](Cc1ccc(O)cc1)NC(=O)[C@@H](NC(=O)CNC(=O)[C@H](CCC(=O)O)NC(=O)[C@H](C)NC(=O)[C@@H](N)Cc1c[nH]cn1)[C@@H](C)O)[C@@H](C)O)C(C)C)[C@@H](C)O)[C@@H](C)CC)C(=O)N[C@@H](CCCCN)C(=O)NCC(=O)N[C@@H](CCCCN)C(=O)N1CCC[C@H]1C(=O)N[C@@H](CCCCN)C(=O)O` returned an IC50 of 2.9 nM. The compound H-HAEGTFTNDMTNYLEEKAAKEFVGWLIKGRPK-OH gave an IC50 against Glucagon-1 [2] of 43.4 nM. H-HFDGVYTDYFSRYLEEKATNEFIDWLLKGQE-OH: the IC50 in assay [3] is 7.4 nM.

`CC[C@H](C)[C@H](NC(=O)[C@H](CC(C)C)NC(=O)[C@H](Cc1c[nH]c2ccccc12)NC(=O)[C@H](CC(=O)O)NC(=O)[C@@H](NC(=O)[C@H](Cc1ccccc1)NC(=O)[C@H](CCC(=O)O)NC(=O)[C@H](CCCCN)NC(=O)[C@H](C)NC(=O)[C@H](C)NC(=O)[C@H](CCCCN)NC(=O)[C@H](CCC(=O)O)NC(=O)[C@H](CC(=O)O)NC(=O)[C@H](CC(C)C)NC(=O)[C@H](CCC(N)=O)NC(=O)[C@H](CCC(N)=O)NC(=O)[C@@H](NC(=O)[C@@H](NC(=O)[C@H](CC(=O)O)NC(=O)[C@H](CO)NC(=O)[C@@H](NC(=O)[C@H](Cc1ccccc1)NC(=O)[C@@H](NC(=O)CNC(=O)[C@H](CCC(=O)O)NC(=O)[C@H](C)NC(=O)[C@@H](N)Cc1c[nH]cn1)[C@@H](C)O)[C@@H](C)O)C(C)C)[C@@H](C)O)[C@@H](C)CC)C(=O)N[C@@H](CC(N)=O)C(=O)NCC(=O)NCC(=O)N1CCC[C@H]1C(=O)N[C@@H](CO)C(=O)N[C@@H](CCCCN)C(=O)N[C@@H](CCC(=O)O)C(=O)N[C@H](C(=O)N[C@H](C(=O)N[C@@H](CO)C(=O)O)[C@@H](C)CC)[C@@H](C)CC` had a concentration for half-maximal inhibition (IC50) at Glucagon-1 [4] of 12.7 nM. For the compound H-HSEGTFTNDVTRLLEEKATSEFIAWLLKGLE-OH, inhibition in assay [3] was half-maximal at 7.4 nM (IC50).

The term IC50 denotes the concentration that gives 50% inhibition. Read a high IC50 as lower potency.
